According to ChEMBL document CHEMBL1135887, “Substituted pentacyclic carbazolones as novel muscarinic allosteric agents: synthesis and structure-affinity and cooperativity relationships” (J Med Chem, 2002):

Legend:
[1] = target: T1, Muscarinic acetylcholine receptor M1 (Homo sapiens) (UniProt P11229); test: Logarithm of affinity (log 1/M) at the (N-methyl Scopolamine) NMS-liganded muscarinic acetylcholine receptor M1 by using semiquantitative equilibrium and off-rate assay
T1 sequence (whole entry): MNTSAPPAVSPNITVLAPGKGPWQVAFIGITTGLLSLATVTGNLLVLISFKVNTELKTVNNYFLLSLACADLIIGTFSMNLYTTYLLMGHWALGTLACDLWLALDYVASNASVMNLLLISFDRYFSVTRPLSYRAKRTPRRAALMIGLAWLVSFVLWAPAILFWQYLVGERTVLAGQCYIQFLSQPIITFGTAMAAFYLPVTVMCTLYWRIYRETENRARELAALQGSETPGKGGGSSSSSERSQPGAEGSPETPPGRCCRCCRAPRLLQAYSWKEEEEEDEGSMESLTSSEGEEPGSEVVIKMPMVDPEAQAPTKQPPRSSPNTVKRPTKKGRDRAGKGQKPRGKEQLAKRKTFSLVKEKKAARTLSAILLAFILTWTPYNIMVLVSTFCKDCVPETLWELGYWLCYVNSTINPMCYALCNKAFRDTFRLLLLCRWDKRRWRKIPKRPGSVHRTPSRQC

[2] = target: T1, Muscarinic acetylcholine receptor M1 (Homo sapiens); test: Logarithm of affinity (log 1/M) at the free muscarinic acetylcholine receptor M1 by using semiquantitative equilibrium and off-rate assay
[3] = target: T1, Muscarinic acetylcholine receptor M1 (Homo sapiens); test: Subtype selectivity and the cooperativity with N-methyl Scopolamine (NMS) at Muscarinic acetylcholine receptor M1,activity range is 0.2-0.8.
[4] = target: Muscarinic acetylcholine receptor M3 (Homo sapiens) (UniProt P20309); test: Subtype selectivity and the cooperativity with N-methyl Scopolamine (NMS) at Muscarinic acetylcholine receptor M3; activity ranges is 0.2-0.8.
[5] = target: T2, Muscarinic acetylcholine receptor M2 (Homo sapiens) (UniProt P08172); test: Logarithm of affinity (log 1/M) at the (N-methyl Scopolamine) NMS-liganded muscarinic acetylcholine receptor M2 by using semiquantitative equilibrium and off-rate assay
T2 sequence (whole entry): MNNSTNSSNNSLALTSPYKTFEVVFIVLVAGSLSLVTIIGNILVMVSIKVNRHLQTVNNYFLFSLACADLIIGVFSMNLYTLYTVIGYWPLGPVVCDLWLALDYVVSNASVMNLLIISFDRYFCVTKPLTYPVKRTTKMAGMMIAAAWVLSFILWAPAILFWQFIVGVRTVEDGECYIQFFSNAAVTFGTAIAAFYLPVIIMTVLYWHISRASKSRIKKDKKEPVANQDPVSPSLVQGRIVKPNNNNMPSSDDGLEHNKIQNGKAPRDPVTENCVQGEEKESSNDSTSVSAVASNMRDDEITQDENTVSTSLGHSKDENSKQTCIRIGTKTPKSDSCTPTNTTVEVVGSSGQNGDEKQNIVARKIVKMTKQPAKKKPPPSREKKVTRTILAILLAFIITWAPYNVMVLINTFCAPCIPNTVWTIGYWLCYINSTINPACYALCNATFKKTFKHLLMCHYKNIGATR

[6] = target: T3, Muscarinic acetylcholine receptor M4 (Homo sapiens) (UniProt P08173); test: Logarithm of affinity (log 1/M) at the (N-methyl Scopolamine) NMS-liganded muscarinic acetylcholine receptor M4 by using semiquantitative equilibrium and off-rate assay
T3 sequence (whole entry): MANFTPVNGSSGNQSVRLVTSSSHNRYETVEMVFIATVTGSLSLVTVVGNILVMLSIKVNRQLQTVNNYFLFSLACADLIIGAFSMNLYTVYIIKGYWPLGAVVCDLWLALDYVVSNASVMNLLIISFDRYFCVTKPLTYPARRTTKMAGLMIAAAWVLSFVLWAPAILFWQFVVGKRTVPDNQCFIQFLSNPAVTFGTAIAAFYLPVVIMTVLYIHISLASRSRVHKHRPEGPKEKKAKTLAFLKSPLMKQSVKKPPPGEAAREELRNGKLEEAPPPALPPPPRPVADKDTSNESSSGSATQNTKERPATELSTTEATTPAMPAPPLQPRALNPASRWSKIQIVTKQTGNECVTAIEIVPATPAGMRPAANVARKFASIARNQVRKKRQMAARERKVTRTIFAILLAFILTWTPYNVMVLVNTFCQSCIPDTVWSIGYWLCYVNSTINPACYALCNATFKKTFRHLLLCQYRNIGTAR

[7] = target: T3, Muscarinic acetylcholine receptor M4 (Homo sapiens); test: Logarithm of affinity (log 1/M) at the muscarinic acetylcholine receptor M4 by using semiquantitative equilibrium and off-rate assay
[8] = target: Muscarinic acetylcholine receptor M3 (Homo sapiens) (UniProt P20309); test: Logarithm of affinity (log 1/M) at the muscarinic acetylcholine receptor M3 by using semiquantitative equilibrium and off-rate assay
[9] = target: T3, Muscarinic acetylcholine receptor M4 (Homo sapiens); test: Subtype selectivity and the cooperativity with N-methyl Scopolamine (NMS) at Muscarinic acetylcholine receptor M4; activity range is 0.2-0.8.
[10] = target: T2, Muscarinic acetylcholine receptor M2 (Homo sapiens); test: Subtype selectivity and the cooperativity with N-methyl Scopolamine (NMS) at Muscarinic acetylcholine receptor M2,activity range is 1.2-3.
[11] = target: T2, Muscarinic acetylcholine receptor M2 (Homo sapiens); test: Logarithm of affinity (log 1/M) at the muscarinic acetylcholine receptor M2 by using semiquantitative equilibrium and off-rate assay
[12] = target: Muscarinic acetylcholine receptor M3 (Homo sapiens) (UniProt P20309); test: Logarithm of affinity (log 1/M) at the (N-methyl Scopolamine) NMS-liganded muscarinic acetylcholine receptor M3 by using semiquantitative equilibrium and off-rate assay
[13] = target: T2, Muscarinic acetylcholine receptor M2 (Homo sapiens); test: Subtype selectivity and the cooperativity with N-methyl Scopolamine (NMS) at muscarinic M2 receptor; Activity range is 0.81-1.19
[14] = target: T1, Muscarinic acetylcholine receptor M1 (Homo sapiens); test: Subtype selectivity and the cooperativity with N-methyl Scopolamine (NMS) at Muscarinic acetylcholine receptor M1
[15] = target: Muscarinic acetylcholine receptor M3 (Homo sapiens) (UniProt P20309); test: Subtype selectivity and the cooperativity with N-methyl Scopolamine (NMS) at muscarinic acetylcholine receptor M3; Activity range is 0.2-0.8
[16] = target: T3, Muscarinic acetylcholine receptor M4 (Homo sapiens); test: Subtype selectivity and the cooperativity with N-methyl Scopolamine (NMS) at Muscarinic acetylcholine receptor M4; Activity range is 0.2-0.8
[17] = target: T1, Muscarinic acetylcholine receptor M1 (Homo sapiens); test: Subtype selectivity and the cooperativity with N-methyl Scopolamine (NMS) at Muscarinic acetylcholine receptor M1; Activity range is 0.2-0.8
[18] = target: Muscarinic acetylcholine receptor M3 (Homo sapiens) (UniProt P20309); test: Subtype selectivity and the cooperativity with N-methyl Scopolamine (NMS) at Muscarinic acetylcholine receptor M3; […]
[19] = target: T2, Muscarinic acetylcholine receptor M2 (Homo sapiens); test: Subtype selectivity and the cooperativity with N-methyl Scopolamine (NMS) at Muscarinic acetylcholine receptor M2; Activity range is 1.2-3
[20] = target: T3, Muscarinic acetylcholine receptor M4 (Homo sapiens); test: Subtype selectivity and the cooperativity with N-methyl Scopolamine (NMS) at Muscarinic acetylcholine receptor M4; Activity range is 1.2-3
[21] = target: T1, Muscarinic acetylcholine receptor M1 (Homo sapiens); test: Subtype selectivity and the cooperativity with N-methyl Scopolamine (NMS) at Muscarinic acetylcholine receptor M1; Activity range is 1.2-3
[22] = target: Muscarinic acetylcholine receptor M3 (Homo sapiens) (UniProt P20309); test: Subtype selectivity and the cooperativity with N-methyl Scopolamine (NMS) at Muscarinic acetylcholine receptor M3; Activity range is 1.2-3
[23] = target: T2, Muscarinic acetylcholine receptor M2 (Homo sapiens); test: Subtype selectivity and the cooperativity with N-methyl Scopolamine (NMS) at Muscarinic acetylcholine receptor M2
[24] = target: T3, Muscarinic acetylcholine receptor M4 (Homo sapiens); test: Subtype selectivity and the cooperativity with N-methyl Scopolamine (NMS) at Muscarinic acetylcholine receptor M4

Chain of Muscarinic acetylcholine receptor M3 (Homo sapiens) (P20309 whole entry, looked up): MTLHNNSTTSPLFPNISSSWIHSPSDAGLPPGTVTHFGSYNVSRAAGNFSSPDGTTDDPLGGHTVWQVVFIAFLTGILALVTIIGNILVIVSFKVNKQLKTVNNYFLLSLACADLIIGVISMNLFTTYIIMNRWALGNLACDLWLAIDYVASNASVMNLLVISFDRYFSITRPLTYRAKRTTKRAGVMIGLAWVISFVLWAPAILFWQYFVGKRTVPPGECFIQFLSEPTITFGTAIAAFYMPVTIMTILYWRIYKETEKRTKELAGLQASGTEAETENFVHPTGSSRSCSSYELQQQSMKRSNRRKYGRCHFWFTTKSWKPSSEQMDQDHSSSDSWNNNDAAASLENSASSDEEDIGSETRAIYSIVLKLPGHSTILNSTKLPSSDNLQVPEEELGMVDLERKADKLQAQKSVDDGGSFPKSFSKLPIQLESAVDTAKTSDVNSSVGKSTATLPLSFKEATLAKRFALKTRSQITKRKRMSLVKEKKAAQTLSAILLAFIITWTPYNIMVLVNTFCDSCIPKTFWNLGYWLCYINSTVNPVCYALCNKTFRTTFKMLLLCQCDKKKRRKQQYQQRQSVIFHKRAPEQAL

## O=C1CCc2cc3c(c4c5cc6c(cc5n1c24)OCO6)CCNC3
[1]
  Log 1/M: 5.99
[2]
  Log 1/M: 6.06
[3]
  Cooperativity: 0.8
[4]
  Cooperativity: 0.8
[5]
  Log 1/M: 6.31
[6]
  Log 1/M: 5.73
[7]
  Log 1/M: 5.29
[8]
  Log 1/M: 5.61
[9]
  Cooperativity: 0.8
[10]
  Cooperativity: 3
[11]
  Log 1/M: 6.18
[12]
  Log 1/M: 5.06

## COC(=O)c1ccc2c(c1)c1c3c(cc4c1n2C(=O)CC4)CNCC3
[13]
  Cooperativity: 1.19
[14]
  Cooperativity: < 0.2
[1]
  Log 1/M: 5.62
[15]
  Cooperativity: 0.8
[2]
  Log 1/M: 6.32
[5]
  Log 1/M: 6.43
[16]
  Cooperativity: 0.8
[6]
  Log 1/M: 6
[7]
  Log 1/M: 5.55
[8]
  Log 1/M: 5.64
[11]
  Log 1/M: 6.44
[12]
  Log 1/M: 5.09

## COc1cc2c3c4c(cc5c3n(c2cc1OC)C(=O)CC5)CNCC4
[17]
  Cooperativity: 0.8
[1]
  Log 1/M: 5.81
[2]
  Log 1/M: 6.05
[5]
  Log 1/M: 6.47
[6]
  Log 1/M: 6.05
[7]
  Log 1/M: 4.8
[18]
  Cooperativity: 1.19
[8]
  Log 1/M: 5.2
[19]
  Cooperativity: 3
[20]
  Cooperativity: 3
[11]
  Log 1/M: 6.15
[12]
  Log 1/M: 5.15

## COc1cc2c3c4c(cc5c3n(c2cc1OC)C(=O)CC5)CCNC4
[1]
  Log 1/M: 6.44
[2]
  Log 1/M: 6.19
[5]
  Log 1/M: 6.97
[6]
  Log 1/M: 6.57
[21]
  Cooperativity: 3
[22]
  Cooperativity: 3
[7]
  Log 1/M: 5.9
[8]
  Log 1/M: 5.19
[23]
  Cooperativity: > 3
[24]
  Cooperativity: > 3
[11]
  Log 1/M: 6.28
[12]
  Log 1/M: 5.53
